In test [1] the test system is angiogenesis due to bFGF (rat cornea). The test is described as follows: Angiogenesis inhibitory action by the rat cornea micropocket method. The class given is in vivo, male Sprague-Dawley rats. The settings on record: sustained release pellet, 20 μg sample, next to bFGF pellet (250 ng) in cornea; observed after 10 days. An excerpt: Angiogenesis inhibitory action by the rat cornea micropocket method
Essentially the same method of Gimbrone et al. [J. National Cancer Institute 52:413-419 (1974)] was follows.
Specifically, adult male Sprague-Dawley rats (11 to 16 week old) were anesthetized with nembtal and locally anesthetized by instillation of xylocaine eyedrops onto the eyeball. The cornea was incised to a length of about 2 mm at about 2 mm inside from the corneal circumference by means of an injection needle, and a basic fibroblast growth factor (bFGF, bovine brain-derived, purified product, R & D Inc.) and a sustained release pellet containing the test sample were inserted side by side into the incision so that the bFGF pellet was located on the central side in the cornea. In the control group, the bFGF pellet and a sample-free pellet were inserted into the cornea. After 10 days, the cornea was observed under a stereoscopic microscope.
The sustained release pellets were prepared in the following manner. An ethylene-vinyl acetate copolymer (Takeda Chemical Industries, Ltd.) was dissolved in dichloromethane to a concentration of 8%. A 3 μl portion of the solution was air-dried on a glass dish, an aqueous solution of bFGF (250 ng) was then placed thereon and air-dried and, finally 3 μl of the above-mentioned ethylene-vinyl acetate copolymer solution was placed further thereon and air-dried to give a sandwich sheet. This sandwich sheet was made round into a bFGF pellet. The test sample pellets were prepared by dissolving each sample in ethanol to a concentration of 20 μg/2 μl, mixing the solution with 6 μl of an ethylene-vinyl acetate copolymer solution, air-drying the mixed solution on a glass dish and making the thus-obtained sheet round.
In the above Table 1, the number of rats subjected to the test was shown by denominator, and the number of rats whose […] due to bFGF was retarded or weakened by administration of the test sample was shown by numerator. In the judgment, +means an inhibition rate of 70% or more, and ±means that of less than 70% but exceeding 40%.

In the next test the test system is M5076 cells. As to the kind of experiment: Antitumor test in mice inoculated subcutaneously with M5076 cells (tumor size, T/C). Type of test: in vivo, C57BL/6 mice. The settings on record: Mus musculus, M5076, sc, 312 h, 30 mg/kg, subcutaneous, 10 times in total; tumor size after 13 days; read-out: T/C (%) (ratio of tumor size to control group). As to the method:
C57BL/6 mice (a group consisting of 6 mice) were inoculated subcutaneously at the dorsolateral area with 2×10^6 M5076 cells, and then a test compound dissolved in a 5% gum arabic physiological saline solution was subcutaneously administered 10 times in total, i.e. 1st, 2nd, 4th, 5th, 6th, 7th, 8th, 9th, 11th and 12th day after the inoculation. After 13 days, the major axis (a) and the minor axis (b) of the tumor tissue were measured to determine the tumor size by the calculation formula of a×b^2 ×1/2. The ratio of the tumor size thus calculated to the tumor size of animals in the control group was shown by T/C (%).

Turning to `CO[C@@H]1[C@H](OC(=O)NC(=O)CCl)CC[C@](O)(CCl)[C@H]1[C@@]1(C)O[C@@H]1CC=C(C)C` [Example 1c, 4-O-(Chloroacetylcarbamoyl)-2-(1,2-epoxy-1,5-dimethyl-4-hexenyl)-3-methoxy-1-chloromethyl-1,4-cyclohexanediol], in test [1], the “Inhibitory Rate (rats whose angiogenesis due to bFGF was retarded or weakened / rats subjected to the test)” value was 5/5 and the “Judgment (Angiogenesis Inhibitory Activity)” value was “+ (an inhibition rate of 70% or more)”. The response vs control in vivo at 30 mg/kg with M5076 cells worked out at 20%.
In the same order, the values of `C=C(C)C(=O)NC(=O)O[C@@H]1CC[C@](O)(CCl)[C@@H]([C@@]2(C)O[C@@H]2CC=C(C)C)[C@@H]1OC` [Example 3, 4-O-(methacryloylcarbamoyl)-2-(1,2-epoxy-1,5-dimethyl-4-hexenyl)-3-methoxy-1-chloromethyl-1,4-cyclohexanediol] are 4/7, “± (that of less than 70% but exceeding 40%)” and 36%.

Values taken from patent US5180735A, “Cyclohexanol derivatives, production and use thereof” (Takeda Chemical Industries, Ltd., priority 1989, dated 1993).
